# In patent US12686703B2, “Cosmetic tetrapeptide, composition and use” (Sederma, priority 2020, dated 2026):
# Marks after values point to notes of the source that are not given here. Where a SMILES comes first, the peptide text is derived from it. The star is where a group is joined. Palmitoyl = CCCCCCCCCCCCCCCC(=O)*
# How the values were obtained:
# Format in all cases: cell-based
# [1] = test system: whole hair follicles isolated from scalp explants; test: Hair growth from hair follicle bulbs (isolated follicles in culture)
# Experimental: Whole follicles (including the infundibulum, upper sheath, bulge, lower sheath, and bulb) are isolated by microdissection from scalp explants issued from surgery. On first day (DO), the hairs are placed individually in wells and keep alive at 37° C. in a humid atmosphere, enriched with 5% CO2, in an adapted culture medium.
# Peptide solutions at 10 ppm and 5 ppm are prepared in the culture medium with 0.1% DMSO.
# On D0, D3, D5 and D7, the peptide products are incorporated into the culture medium. The culture media are completely renewed for each treatment. The control cases receive no treatment other than renewal of the culture medium.
# On day D0, the hairs are removed and stored frozen at −80° C. On D10, the hairs from each case are taken and treated in the same way.
# A photograph of the isolated hairs is taken on DO to measure the hair from the bulb to the end of the hair shaft using an image analysis software. The photographs and length measurements are repeated on D3, D5, D7 and D10. The growth of each hair is monitored individually.
# During the study, the hairs grow. To estimate the effect of the peptide, the average hair length between the peptide and the solvent control are compared, for each time (see below Table 5).
# Fibrillin 1 = test: Immunofluorescence assay of Fibrillin 1 formation in normal human fibroblasts; details: 8 ppm; NHF, five-day incubation; p < 0.05
# Experimental: Normal human fibroblasts (NHF) are cultured for at least 24 hours in fibroblast growth medium containing serum. Once confluence was reached, the cells are seeded, and the actives and corresponding controls diluted in a culture medium are added. At the end of a five-day incubation period, the supernatant is removed, the cells are washed with PBS and fixed. The cells are then incubated with the primary Fibrillin 1 monoclonal antibody (11C1.3) (Thermo Fisher) diluted in blocking buffer at a concentration of 1:200. The cells are incubated. The primary antibody is removed, and the cells are washed with PBS. The secondary antibody was added at a dilution of 1:1000 in blocking buffer, then removed and the cells are washed with PBS. The formation of Fibrillin 1 by the cells is visualized using a fluorescence microscope. The obtained images are analyzed using an image processing software assigning a numerical value to the coverage density.
# [2] = test system: Outer Root Sheath Keratinocytes (ORSK); test: Proliferation study (EdU) on outer root sheath keratinocytes; details: 5 ppm, p < 0.01
# Experimental: (§1) 2.1—Proliferation Studies on Cell Cultures (Hair Follicle Dermal Papilla Cells (HFDPC) and Outer Root Sheath Keratinocytes (ORSK))
# (§2) The cells are seeded in adapted culture media and incubated for 24 h. Then the culture media are removed and changed for test media and cells are incubated. The cells are thereafter contacted with the peptide (diluted at different concentrations in DMSO) and with EdU (Ethynyldeoxyuridine), a thymidine-analogue nucleoside which is incorporate into the newly synthetized in proliferating cells. The cultures are stopped, and cells are labelled using a Edu detection kit.
# [3] = test system: Hair Follicle Dermal Papilla Cells (HFDPC); test: Proliferation study (EdU) on hair follicle dermal papilla cells; details: p < 0.01
# Experimental: as §1, §2
# Collagen I (PIP) = test: ELISA assay of collagen I synthesis (PIP assay) in normal human fibroblasts; details: concentrations of 5 to 15 ppm; NHF, 72 h contact; vs excipient; p < 0.01
# Experimental: Normal human fibroblasts (NHF) in culture are brought into contact with the products to be tested or their excipient (negative control) for 72 h. At the end of the contact, the culture supernatants are removed, and the syntheses of the dermal macromolecules are estimated by ELISA assays. An estimate of cell viability is carried out by Hoechst assay to weight the obtained data.
# Collagen I is evaluated via the PIP assay (carboxy-terminal propeptide of procollagen type I) which is a peptide fragment resulting from the enzymatic degradation of procollagen when the latter is excreted outside the fibroblast (therefore in the culture medium where the assay is carried out).
smiles,measurement,setting,value
"CCCCCCCCCCCCCCCC(=O)N[C@@H](CC(C)C)C(=O)N[C@@H](CC(C)C)C(=O)N[C@@H](C)C(=O)N[C@@H](CC(N)=O)C(=O)O [Pal-LLAN-OH, palmitoyl-leucyl-leucyl-alanyl-asparagine] (Palmitoyl-LLAN-OH)",Growth variation compared to solvent control (0.1% DMSO),"[1]; 5 ppm, D3, nsd",+21% (nsd)
same,Growth variation compared to solvent control (0.1% DMSO),"[1]; 5 ppm, D5, p < 0.05",+26%*
same,Growth variation compared to solvent control (0.1% DMSO),"[1]; 5 ppm, D7, p < 0.01",+32%**
same,Growth variation compared to solvent control (0.1% DMSO),"[1]; 5 ppm, D10, p < 0.01",+30%**
same,Growth variation compared to solvent control (0.1% DMSO),"[1]; 10 ppm, D3, nsd",+16% (nsd)
same,Growth variation compared to solvent control (0.1% DMSO),"[1]; 10 ppm, D5, p < 0.05",+28%*
same,Growth variation compared to solvent control (0.1% DMSO),"[1]; 10 ppm, D7, p < 0.01",+37%**
same,Growth variation compared to solvent control (0.1% DMSO),"[1]; 10 ppm, D10, p < 0.01",+38%**
same,Fibrillin 1,Fibrillin 1,+108% (p < 0.05)
same,Cell proliferation variation % vs. control solvent (DMSO),[2],+55%
same,Cell proliferation variation % vs. control solvent (DMSO),[3]; 5 ppm,+13.7%
same,Cell proliferation variation % vs. control solvent (DMSO),[3]; 10 ppm,+22.15%
same,Collagen I (PIP),Collagen I (PIP),+60%
